# Peptide text beside a SMILES is read from it. * marks the point of attachment. Bz = O=C(c1ccccc1)*
# Columns and labels:
# ACE [1] = assay: Sulfate and chloride effects on ACE catalysed hydrolysis (general description); format: biochemical
# Excerpt: An assay for ACE, using HipHisLeu as substrate, is herewith described. The assay is more sensitive than any heretofore disclosed using HipHisLeu as substrate. Maximum sensitivity is achieved by the inclusion of sulfate ions, preferably as sodium sulfate, in the reaction mixture. When 0.1 M NaCl is present in the reaction mixture, sulfate ions are stimulatory from 0.1 M to at least 1.1 M. Maximum stimulation occurs in the range from 0.75 M to 1.1 M Na2 SO4.
# (§1) An even more sensitive assay for ACE activity has been developed using the novel compound ^3 H-benzoylPheAlaPro as substrate. This new substrate can be used to assay ACE in human urine in incubations as short as 15 minutes. The response of this substrate to ions is strikingly different from the response of HipHisLeu. […] This difficulty has been solved by the proper choice of extracting solvent. While a variety of organic solvents may be suitable for the extraction step, it is preferred to employ toluene. Approximately 88% of ^3 H-benzoylPhe enters the toluene phase while only 6% of the unhydrolyzed substrate enters the toluene phase, when toluene and the acidified reaction mixture are in approximately equal volumes at room temperatures.
# (§2) The enzyme is active over a broad pH range with a maximum around pH 8.0, but is at least about 50% active in the range pH 7.0-pH 8.8, for both HipHisLeu and benzoylPheAlaPro. Although the enzyme is active in a variety of buffer systems known in the art, it is preferred for convenience, when using benzoylPheAlaPro as substrate, to conduct the assays in 0.05 M Hepes buffer, pH 8.0 containing 0.15 M sodium chloride. Detailed protocols for carrying out the assay are given in the examples. […] The preferred concentration range is 1×10^-9 M to 7×10^- 5 M.
# [2] = tested on: enzyme isolated from hog lung (ACE); settings: cited from earlier work
# ACE from rabbit lung = settings: HipHisLeu as substrate; cited from earlier work
# [3] = Extraction from the acidified reaction mixture into organic solvent; format: physicochemical; settings: toluene and acidified reaction mixture in approximately equal volumes, room temperature
# Method: as §1
# Guinea pig urinary ACE = target: T1, Guinea pig urinary ACE (Cavia porcellus, UniProt H0UWL7); assay: Sulfate and chloride effects on ACE catalysed substrate hydrolysis; format: biochemical; settings: 0.05 Hepes, pH 8.0, 0.15M HCl
# T1 sequence (H0UWL7 33-1302): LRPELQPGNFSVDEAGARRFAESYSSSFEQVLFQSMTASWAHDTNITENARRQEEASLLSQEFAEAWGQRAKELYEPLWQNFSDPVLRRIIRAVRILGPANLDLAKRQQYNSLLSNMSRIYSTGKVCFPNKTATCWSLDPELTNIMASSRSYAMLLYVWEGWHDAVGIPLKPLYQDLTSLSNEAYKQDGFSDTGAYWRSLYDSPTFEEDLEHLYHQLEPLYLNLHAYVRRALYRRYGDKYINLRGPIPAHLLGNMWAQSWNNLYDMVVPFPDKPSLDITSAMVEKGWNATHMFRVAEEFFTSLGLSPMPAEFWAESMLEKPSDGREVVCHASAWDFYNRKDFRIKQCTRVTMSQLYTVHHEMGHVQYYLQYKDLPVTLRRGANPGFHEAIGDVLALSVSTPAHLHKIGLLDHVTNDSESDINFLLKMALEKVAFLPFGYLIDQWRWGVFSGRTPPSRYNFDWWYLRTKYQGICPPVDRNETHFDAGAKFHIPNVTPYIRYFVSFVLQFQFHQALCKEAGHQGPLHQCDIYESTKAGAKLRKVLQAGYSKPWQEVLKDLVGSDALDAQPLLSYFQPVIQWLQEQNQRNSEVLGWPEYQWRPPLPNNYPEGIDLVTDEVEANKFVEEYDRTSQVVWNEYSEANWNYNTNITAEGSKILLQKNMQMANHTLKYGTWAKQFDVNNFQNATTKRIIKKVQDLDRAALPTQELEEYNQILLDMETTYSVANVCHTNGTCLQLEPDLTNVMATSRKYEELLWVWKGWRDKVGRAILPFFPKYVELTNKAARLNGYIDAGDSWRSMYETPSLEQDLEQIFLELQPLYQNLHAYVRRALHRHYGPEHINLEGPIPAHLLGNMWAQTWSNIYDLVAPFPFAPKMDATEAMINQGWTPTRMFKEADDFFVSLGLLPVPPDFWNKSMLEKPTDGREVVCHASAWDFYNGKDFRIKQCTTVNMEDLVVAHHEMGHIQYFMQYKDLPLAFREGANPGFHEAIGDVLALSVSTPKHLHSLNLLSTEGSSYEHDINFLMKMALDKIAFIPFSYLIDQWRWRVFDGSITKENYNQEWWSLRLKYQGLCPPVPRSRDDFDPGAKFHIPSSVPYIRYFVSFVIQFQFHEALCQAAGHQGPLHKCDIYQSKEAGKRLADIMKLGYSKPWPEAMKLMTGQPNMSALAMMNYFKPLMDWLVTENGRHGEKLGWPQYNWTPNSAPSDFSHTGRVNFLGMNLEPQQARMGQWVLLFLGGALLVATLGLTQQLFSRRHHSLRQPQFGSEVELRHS
# Guinea pig serum ACE [4] = target: T2, Guinea pig serum ACE (Cavia porcellus, UniProt H0UWL7); assay: Kinetics of benzoyl-Phe-Ala-Pro hydrolysis; settings: for V (reaction velocity): 0.05 M Hepes, pH 8.0, 0.15 M NaCl, 37° C., serum 1:1000
# T2 sequence (H0UWL7 33-1234): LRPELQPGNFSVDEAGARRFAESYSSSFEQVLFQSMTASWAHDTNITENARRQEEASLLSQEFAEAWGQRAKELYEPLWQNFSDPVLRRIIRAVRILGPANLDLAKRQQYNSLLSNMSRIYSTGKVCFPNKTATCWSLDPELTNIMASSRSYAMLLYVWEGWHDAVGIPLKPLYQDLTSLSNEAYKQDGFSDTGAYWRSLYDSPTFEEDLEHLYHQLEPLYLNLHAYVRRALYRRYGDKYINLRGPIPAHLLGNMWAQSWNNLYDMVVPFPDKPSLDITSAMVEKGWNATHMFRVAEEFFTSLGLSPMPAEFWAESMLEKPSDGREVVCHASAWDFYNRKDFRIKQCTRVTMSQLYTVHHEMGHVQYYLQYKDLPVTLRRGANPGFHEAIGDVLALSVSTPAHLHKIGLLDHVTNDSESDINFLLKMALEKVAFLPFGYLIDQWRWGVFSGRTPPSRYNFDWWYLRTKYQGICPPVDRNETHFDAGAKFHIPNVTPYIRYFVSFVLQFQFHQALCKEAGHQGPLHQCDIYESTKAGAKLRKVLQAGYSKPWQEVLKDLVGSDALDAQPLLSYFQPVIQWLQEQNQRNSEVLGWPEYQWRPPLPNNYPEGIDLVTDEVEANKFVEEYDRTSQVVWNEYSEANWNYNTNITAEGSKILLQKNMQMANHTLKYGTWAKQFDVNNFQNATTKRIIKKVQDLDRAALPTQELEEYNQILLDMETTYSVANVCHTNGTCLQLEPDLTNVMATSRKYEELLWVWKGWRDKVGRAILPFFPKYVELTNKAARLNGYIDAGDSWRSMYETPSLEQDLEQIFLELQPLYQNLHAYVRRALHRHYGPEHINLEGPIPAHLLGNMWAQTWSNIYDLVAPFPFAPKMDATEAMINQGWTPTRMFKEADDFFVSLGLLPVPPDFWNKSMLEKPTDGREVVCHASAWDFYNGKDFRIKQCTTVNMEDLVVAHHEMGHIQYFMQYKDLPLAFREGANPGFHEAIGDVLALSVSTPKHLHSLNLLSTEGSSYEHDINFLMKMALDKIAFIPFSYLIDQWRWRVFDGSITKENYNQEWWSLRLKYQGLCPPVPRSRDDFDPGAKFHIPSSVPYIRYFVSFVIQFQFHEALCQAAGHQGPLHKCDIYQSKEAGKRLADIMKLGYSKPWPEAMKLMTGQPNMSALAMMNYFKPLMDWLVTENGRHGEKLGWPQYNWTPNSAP
# Method: Kinetics of Benzoyl-Phe-Ala-Pro Hydrolysis
# The apparent Km for the ACE catalyzed hydrolysis of benzoyl-Phe-Ala-Pro was measured in the following manner. […] Guinea pig serum was diluted 1:1000 to provide the enzyme. A mixture of 50 μl diluted serum and 50 μl of substrate, diluted in the reaction buffer to provide the appropriate substrate concentration for each experiment, was incubated at 37° C. for 10 minutes. At the end of the incubation, 1.0 ml of 0.1 M HCl was added to stop the reaction. The reaction mixture was then extracted with 1.0 ml toluene, and a 0.5 ml aliquot of the toluene phase was counted in a scintillation counter.
# ACE [5] = target: ACE (Homo sapiens, UniProt P12821); assay: Comparison of sensitivity of ACE radioassays; format: biochemical
# ACE (Homo sapiens, UniProt P12821), sequence (P12821 30-1306, species assumed): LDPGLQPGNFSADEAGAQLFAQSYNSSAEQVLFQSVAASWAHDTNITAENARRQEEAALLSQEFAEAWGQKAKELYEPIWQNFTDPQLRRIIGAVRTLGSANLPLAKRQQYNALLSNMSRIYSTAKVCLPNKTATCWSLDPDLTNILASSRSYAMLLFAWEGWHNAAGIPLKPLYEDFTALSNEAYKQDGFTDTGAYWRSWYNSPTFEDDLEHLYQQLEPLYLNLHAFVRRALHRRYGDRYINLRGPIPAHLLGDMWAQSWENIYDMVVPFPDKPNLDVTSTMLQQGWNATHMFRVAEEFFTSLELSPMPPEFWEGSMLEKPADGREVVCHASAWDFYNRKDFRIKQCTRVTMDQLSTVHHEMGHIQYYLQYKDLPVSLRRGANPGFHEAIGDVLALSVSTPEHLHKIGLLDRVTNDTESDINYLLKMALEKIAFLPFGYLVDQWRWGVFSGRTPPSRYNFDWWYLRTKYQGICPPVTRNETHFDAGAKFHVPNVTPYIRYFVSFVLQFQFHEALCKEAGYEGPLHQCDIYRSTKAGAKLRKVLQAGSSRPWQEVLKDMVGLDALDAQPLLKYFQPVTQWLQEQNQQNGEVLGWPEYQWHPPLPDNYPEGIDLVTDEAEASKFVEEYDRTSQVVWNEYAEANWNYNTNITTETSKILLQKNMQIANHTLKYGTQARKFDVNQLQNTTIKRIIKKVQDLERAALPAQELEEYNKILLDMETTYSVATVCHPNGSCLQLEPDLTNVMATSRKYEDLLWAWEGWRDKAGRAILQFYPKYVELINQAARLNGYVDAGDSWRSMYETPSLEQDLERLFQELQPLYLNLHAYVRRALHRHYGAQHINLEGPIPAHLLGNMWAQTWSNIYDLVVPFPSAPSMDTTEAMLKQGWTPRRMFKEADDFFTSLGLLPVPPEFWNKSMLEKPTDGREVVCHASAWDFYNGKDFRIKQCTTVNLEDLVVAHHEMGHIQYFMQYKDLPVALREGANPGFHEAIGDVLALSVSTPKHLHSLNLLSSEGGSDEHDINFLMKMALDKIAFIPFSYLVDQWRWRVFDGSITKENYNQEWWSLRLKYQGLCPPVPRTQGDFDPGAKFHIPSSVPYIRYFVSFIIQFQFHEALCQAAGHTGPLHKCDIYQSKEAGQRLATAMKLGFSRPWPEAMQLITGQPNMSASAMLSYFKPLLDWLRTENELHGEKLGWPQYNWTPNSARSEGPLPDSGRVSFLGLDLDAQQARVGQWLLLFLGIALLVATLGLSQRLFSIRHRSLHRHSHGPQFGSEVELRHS
# Excerpt: A comparison of the sensitivity of the disclosed assay methods with each other and with prior art assays may be made by considering assays which depend upon measuring the radioactivity of the remnant reaction product. A prior art assay of this type, using ^3 H-HipGlyGly as substrate has been described (Ryan and Chung, supra). Of the two assays disclosed herein, the sulfate stimulated hydrolysis of ^3 H-HipHisLeu is approximately 20 times more sensitive, and the ^3 H-benzoylPheAlaPro assay is about 10 times more sensitive still. The latter is therefore approximately 200 times more sensitive than the assay using ^3 H-HipGlyGly.
# ACE [6] = assay: pH dependence of ACE activity; format: biochemical
# Excerpt: as §2
# Guinea pig serum ACE [7] = target: T2, Guinea pig serum ACE; assay: Kinetics of (sulfate-stimulated) HipHisLeu hydrolysis; format: biochemical; settings: 0.05 M Hepes, pH 8.0, 0.1 M NaCl, 0.75 M Na2 SO4; Lineweaver and Burke plot
# Method: Kinetics of Sulfate-Stimulated HipHisLeu Hydrolysis
# In each assay, 50 μl of Guinea pig serum diluted 1-20 (v/v) in the reaction buffer was mixed with 50 μl of buffer containing sufficient ^3 H-HipHisLeu to provide approximately 100,000 cpm total, together with sufficient unlabeled HipHisLeu to produce the desired substrate concentrations, as indicated in Table 2. […] The reaction mixture was then extracted with 1 ml ethyl acetate. 500 μl of the ethyl acetate fraction was sampled and counted in a scintillation counter.
# [8] = sulfate ion 0.6 M, 0.1 M chloride, pH 8
molecule,measurement,setting,value
O=C(O)CNC(=O)CNC(=O)CNC(=O)c1ccccc1 [HipGlyGly] (Bz-Gly-Gly-Gly-OH),dependence of hydrolysis on added chloride,ACE [1]; sulfate present,remains dependent upon the presence of added chloride for activity
same,hydrolysis in the absence of NaCl,[2]; Na2 SO4 0.001 M to 0.6 M,no hydrolysis
same,decrease of Km,[2]; [8],about 15%
same,increase of Vmax,[2]; [8],about 5 fold
[Cl-].[Cl-].[Mg+2] [MgCl2],ability to meet the chloride requirement,ACE from rabbit lung,could be met
"O=S(=O)([O-])[O-].[Na+].[Na+] [Na2 SO4, sodium sulfate]",reaction rate vs. buffer containing 0.1 M NaCl and lacking Na2 SO4,"ACE [1]; 0.9 M to 1.2 M Na2 SO4, no added NaCl, 0.05 M Hepes, pH 8.0, HipHisLeu",faster
same,stimulation by sodium sulfate,ACE [1]; ^3 H-benzoylPheAlaPro as substrate,not stimulatory
same,ability to meet the chloride requirement,ACE from rabbit lung,not
"[Cl-].[Na+] [NaCl, sodium chloride]",effect of NaCl on reaction velocity of ^3 H-benzoylPheAlaPro,ACE [1]; 0.01 M added NaCl,increases reaction velocity
same,increase of apparent reaction velocity of ^3 H-benzoylPheAlaPro,ACE [1]; 0.05 M added sodium chloride,approximately 3 fold
same,effect on ACE catalyzed hydrolysis of HipHisLeu,ACE [1]; NaCl 0.75 to 1.1 M,seriously inhibits
same,further increase of reaction velocity of ^3 H-benzoylPheAlaPro,"ACE [1]; additional sodium chloride, up to 0.5 M",little further increase
[3H]c1ccc(C(=O)N[C@@H](Cc2ccccc2)C(=O)O)cc1 [^3 H-benzoylPhe],fraction entering the toluene phase,[3],Approximately 88%
"C[C@H](NC(=O)[C@H](Cc1ccccc1)NC(=O)c1ccccc1)C(=O)N1CCC[C@H]1C(=O)O [benzoylPheAlaPro, benzoyl-Phe-Ala-Pro] (Bz-Phe-Ala-Pro-OH)","Reaction Velocity, Per Cent of Substrate Hydrolyzed in 10 minutes",Guinea pig urinary ACE; Na2 SO4 0 M,4.4 Per Cent
same,"Reaction Velocity, Per Cent of Substrate Hydrolyzed in 10 minutes",Guinea pig urinary ACE; Na2 SO4 0.1 M,5.0 Per Cent
same,"Reaction Velocity, Per Cent of Substrate Hydrolyzed in 10 minutes",Guinea pig urinary ACE; Na2 SO4 0.2 M,4.45 Per Cent
same,"Reaction Velocity, Per Cent of Substrate Hydrolyzed in 10 minutes",Guinea pig urinary ACE; Na2 SO4 0.3 M,4.85 Per Cent
same,"Reaction Velocity, Per Cent of Substrate Hydrolyzed in 10 minutes",Guinea pig urinary ACE; Na2 SO4 0.5 M,5.6 Per Cent
same,1/V,Guinea pig serum ACE [4]; BenzPheAlaPro 1.0 μM,1.50 pmole^-1 · min .multi
same,V (reaction velocity),Guinea pig serum ACE [4]; BenzPheAlaPro 1.0 μM,0.67 pmol/min/mL
same,1/V,Guinea pig serum ACE [4]; BenzPheAlaPro 5.0 μM,0.48 pmole^-1 · min .multi
same,V (reaction velocity),Guinea pig serum ACE [4]; BenzPheAlaPro 5.0 μM,2.08 pmol/min/mL
same,1/V,Guinea pig serum ACE [4]; BenzPheAlaPro 10.0 μM,0.24 pmole^-1 · min .multi
same,V (reaction velocity),Guinea pig serum ACE [4]; BenzPheAlaPro 10.0 μM,4.17 pmol/min/mL
same,1/V,Guinea pig serum ACE [4]; BenzPheAlaPro 66.7 μM,0.11 pmole^-1 · min .multi
same,V (reaction velocity),Guinea pig serum ACE [4]; BenzPheAlaPro 66.7 μM,9.09 pmol/min/mL
same,sensitivity of Km to the presence of sulfate,Guinea pig serum ACE [4]; sulfate present,relatively insensitive to the presence of sulfate
same,sensitivity relative to the sulfate-stimulated HipHisLeu assay,ACE [5],ten to twenty
same,pH of maximum activity,ACE [6],~8.0 pH
same,activity of enzyme (relative to maximum),ACE [6]; range pH 7.0-pH 8.8,at least 50%
^3 H-HipHisLeu,Km,Guinea pig serum ACE [7],177 µM
same,sensitivity relative to the assay using ^3 H-HipGlyGly,"ACE [5]; radioactivity of remnant product, HipHisLeu assay sulfate stimulated",approximately 20 times
